# Measured values published in US20240182413A1, “INSECTICIDAL COMPOUNDS” (Pluton Biosciences, Inc., priority 2022, published 2024).
# Several values for one entry are separate records, joined by “and”; a condition that tells them apart may be missing. Equal values may be shown once. Entries after “also recorded” stand apart in the source; their conditions may differ. Read-outs that look alike come from different tables or passages of the source.
# Legend:
# Aedes aegypti larvae = test: Aedes aegypti killing assay (larval bioassay, two-fold dilution series); assay type: in vivo; conditions: for killing activity against Aedes aegypti: larvae
# Experimental: Insect killing assays. Each compound was dissolved in dimethyl sulfoxide (DMSO). Killing dose curves were constructed for each compound by producing a two-fold dilution series for each compound (e.g., comprising approximately 20 serial dilutions of a stock). Dilutions were made in sterile nutrient yeast extract salt medium (NYSM) broth. The NYSM contained 8 g/L nutrient broth powder, 0.5 g/L yeast extract, 1 mM MgCl2, 700 μM CaCl2, and 50 μM MnCl2 in water. The two-fold dilution series were tested in a killing bioassay as described below. Data were collected to construct a dose curve and determine the half-maximal lethal concentration (LC50) value.
# Bioassays were performed using second or third instar Aedes aegypti larvae, with biological replication. Ae. aegpyti larvae were purchased from Benzon Research, Inc. (Carlisle, PA). Larvae were washed with sterile water before transfer to 24-well assay plates containing 1 mL of sterile water in each well. Each well contained 5 larvae. The final DMSO concentration in each assay well was 1%. Larval mortality was scored for each well at 24-hour timepoints after application. […] In Table 1, mean mortalities and standard deviations were calculated from at least three independent biological replicates. […] LC50 values were calculated using GraphPad Prism software.
# [1] = test system: Spodoptera frugiperda (fall armyworm) first instar larvae; test: Spodoptera frugiperda killing assay (diet-surface overlay); assay type: in vivo
# Experimental: Insect killing assays. Each compound was dissolved in dimethyl sulfoxide (DMSO). Killing dose curves were constructed for each compound by producing a two-fold dilution series of the compound (e.g., comprising approximately 16 serial dilutions of a stock for 3,3′-diindolylmethane and 3-((1H-Indol-2-yl)methyl)-1H-indole and comprising approximately 12 serial dilutions of a stock for 3,3′-diindolyl and 3,3′-(pyridin-4-ylmethylene)bis(1H-indole)). Dilutions were made in sterile NYSM broth as described above. The two-fold dilution series were tested in a killing bioassay as described below. Data were collected to construct a dose curve and determine the half-maximal lethal concentration (LC50) value.
# Bioassays were performed using first instar larvae of the Lepidopteran species Spodoptera frugiperda (fall armyworm), with an N=16 for each concentration of compound tested. S. frugiperda larvae were purchased from Benzon Research, Inc. (Carlisle, PA). A diet-surface overlay format was used in which 1 milliliter of standard lepidopteran diet was placed in each well. One hundred microliters of sample were pipetted into each well and allowed to dry. A DMSO control was included with each set of samples.
# During the development of embodiments of the technology described herein, experiments were conducted to test the killing of arundine against a panel of 11 insect species. […] Briefly, arundine was dissolved in dimethyl sulfoxide (DMSO). Killing dose curves were constructed by producing a two-fold dilution series of arundine. Dilutions were made in sterile NYSM as described. The two-fold dilution series were tested in a killing bioassay performed using first instar larvae of the species listed in Table 4, with an N=16 for each concentration of compound tested. A diet-surface overlay format was used in which 1 milliliter of standard lepidopteran diet was placed in each well. One hundred microliters of sample were pipetted into each well and allowed to dry. A DMSO control was included with each set of samples. […] Data were collected to construct a dose curve and determine the half-maximal lethal concentration (LC50) value.
# Cry1Fa resistant FAW = test: Killing of Cry1Fa resistant fall armyworm; assay type: in vivo, Spodoptera frugiperda; conditions: 1000 ppm BIM compound, 20 μl on diet surface; Cry1 FAW neonates; 5-7 days
# Experimental: During the development of embodiments of the technology provided herein, experiments were conducted to test the killing potency of arundine-derived BIM compounds against strains of fall armyworm (FAW) that are resistant to Bacillus thuringiensis (Bt) insecticidal proteins (e.g., Cry1Fa and Vip3A). Susceptible FAW (Spodoptera frugiperda) was obtained from Benzon Research Inc, Lancaster, PA. Cry1Fa resistant FAW originating from Puerto Rico was reared in a facility by Genective (Weldon, IL). Vip3A resistant FAW originating from southern US was reared in a facility by Genective (Weldon, IL).
# FAW eggs were incubated at approximately 26° C. at 50% relative humidity until eclosion (approximately 3 days) and the hatch was timed to within 12 hours of infesting the diet plates. BIM compounds were obtained from frozen stocks, thawed, suspended in 5% DMSO along with NYSM buffer to provide a solution of 2000 ppm BIM compound in a total volume of 1.0 ml, and stored at −20° C. For testing, a single tube of each BIM compound sample was thawed at 4° C. NYSM buffer was warmed to room temperature. A volume of 750 μl. NYSM buffer was added to 750 μl from each 1.0-ml volume to prepare samples of 1.5 ml BIM compound at 1000 ppm for testing. A total of three BIM preparations per BIM molecule were prepared and tested for killing potency. Compounds tested were BIM-1, 11, 25, 26, 28, 29, 30, 32, 34. A solution of 5% DMSO in NYSM buffer was used as a negative control.
# A standard commercially available semi-solid lepidopteran diet was prepared following manufacturer's instructions (Frontier, multi-species diet). […] LB+Kanamycin (antibiotic) growth media is the negative control for bacterial cultures. Cry1Fa is a positive control prepared as E. coli cells expressing the full-length Cry1Fa protein resuspended in PBS buffer at half the volume of the original growth culture resulting in 2× concentration of cells. Vip3A is a positive control prepared as E. coli whole cell culture expressing Vip3A.
# For each of 3 replicates, 200 μl of diet was prepared in wells of a 96-well plate and the diet plates were warmed to room temperature prior to dispensing samples. After 750 μl NYSM buffer was added to 750 μl from each 1.0-ml volume to prepare samples of 1.5 ml BIM compound at 1000 ppm for testing, BIM solutions were vortexed and 20 μl were dispensed onto the diet surface in each of 16 wells using a repeating pipettor. These steps were repeated for each sample and control for each insect population being tested. BIM compound and control solutions were allowed to absorb into the diet in a biosafety hood until the diet surface was visibly dry. Once dry, wells were sealed with a clear membrane. Two pin holes were poked through the membrane in each well to maintain appropriate humidity level and aeration. Each well was infested with a single neonate larva, and the wells were resealed with perforated membrane to prevent escape. The infested plates were incubated in environmental chambers at 26° C. and 50% relative humidity for 5-7 days. All bioassays were assessed visually to record larval mortality and growth inhibition.
# [2] = second or third instar larvae, mortalities at 72 hours, mean ± standard deviation, at least three biological replicates
# [3] = second or third instar larvae, mortalities at 72 hours, mean ± standard deviation, at least three biological replicates, read-out: LC50
# [4] = Spodoptera frugiperda, first instar larvae, calculated from killing dose curves FIG. 3D to 3NN, read-out: LD50 (the source's name)
# [5] = first instar larvae, calculated from killing dose curves FIG. 3D to 3NN, read-out: LD50 (the source's name)
smiles,measurement,setting,value
"COc1ccc(C(c2c[nH]c3ccccc23)c2c[nH]c3ccccc23)cc1 [1,1-bis(3′-indolyl)-1-(p-methoxyphenyl)methane]",LC50,Aedes aegypti larvae; in vivo,0.0666 ± 0.0564 mM
same,LC50 (μg/mL),Aedes aegypti larvae; in vivo,23.4 ± 19.8 µg/mL
"Cc1cn(C)c2ccccc12 [1,3 dimethylindole, 1,3-dimethylindole]",LC50,"Aedes aegypti larvae; Aedes aegypti, 72 h",13.8 µg/mL and 95.2 µM
Cc1cc2ccccc2[nH]1 [2-methindole],LC50 (μg/mL),Aedes aegypti larvae; [2],6.8 ± 0.5 µg/mL
same,LC50,Aedes aegypti larvae; [3],0.0522 ± 0.0036 mM
"Clc1ccc(C(c2c[nH]c3ccccc23)c2c[nH]c3ccccc23)cc1 [3,3′-((4-chlorophenyl)methylene)bis(1H-indole)]",LC50,"Aedes aegypti larvae; Aedes aegypti, 72 h",2.6 µg/mL and 7.3 µM
"CC(c1c[nH]c2ccccc12)c1c[nH]c2ccccc12 [3,3′-(ethane-1,1-diyl)bis(1H-indole)]",LC50,"Aedes aegypti larvae; Aedes aegypti, 72 h",4.2 µg/mL and 16.1 µM
"c1ccc2c(C(c3ccncc3)c3c[nH]c4ccccc34)c[nH]c2c1 [3,3′-(pyridin-4-ylmethylene)bis(1H-indole)]",LC50,"[1]; Spodoptera frugiperda, first instar larvae, N=16 per concentration, representative curve fit",120 µg/mL and 370 µM
same,activity against S. frugiperda,[1]; first instar larvae,active
same,LC50,"Aedes aegypti larvae; Aedes aegypti, 72 h",62.9 µg/mL and 194 µM
same,killing activity against Aedes aegypti,Aedes aegypti larvae,active
"c1ccc2c(-c3c[nH]c4ccccc34)c[nH]c2c1 [3,3′-diindolyl]",activity against S. frugiperda,[1]; first instar larvae,not active; also recorded: does not have significant killing activity
same,killing activity against Aedes aegypti,Aedes aegypti larvae,did not display any bioactivity; also recorded: does not have significant killing activity
same,LC50 (μg/mL),Aedes aegypti larvae; [2],>2500 µg/mL
same,LC50,Aedes aegypti larvae; [3],> 1 mM
"Fc1ccc2[nH]cc(Cc3c[nH]c4ccc(F)cc34)c2c1 [3,3′-methylenebis(5-fluoro-1H-indole)]",LC50,"Aedes aegypti larvae; Aedes aegypti, 72 h",2.2 µg/mL and 7.8 µM
CCc1c[nH]c2ccccc12 [3-ethyl-1H-indole],LC50,"Aedes aegypti larvae; Aedes aegypti, second or third instar larvae, mortalities at 72 hours, mean ± standard deviation, at least three biological replicates, read-out: LC50",0.06 ± 0.0242 mM
same,LC50,"Aedes aegypti larvae; Aedes aegypti, second or third instar larvae, mortalities at 72 hours, mean ± standard deviation, at least three biological replicates, read-out: LC50 (μg/mL)",8.7 ± 3.5 µg/mL
Oc1ccc2[nH]ccc2c1 [5-hydroxyindole],LC50,"Aedes aegypti larvae; Aedes aegypti, 72 h",279 µg/mL and 2.09 mM
Cn1cc(Cc2cn(C)c3ccccc23)c2ccccc21 [BIM-2],LC50,[1]; [4],> 3000 µM
CC(c1c[nH]c2ccccc12)c1c[nH]c2ccccc12 [BIM-3],LC50,[1]; [4],1280 µM
CC(C)(c1c[nH]c2ccccc12)c1c[nH]c2ccccc12 [BIM-4],LC50,[1]; [4],1810 µM
CCC(c1c[nH]c2ccccc12)c1c[nH]c2ccccc12 [BIM-5],LC50,[1]; [4],2380 µM
CCCC(c1c[nH]c2ccccc12)c1c[nH]c2ccccc12 [BIM-6],LC50,[1]; [4],3240 µM
c1ccc(C(c2c[nH]c3ccccc23)c2c[nH]c3ccccc23)cc1 [BIM-7],LC50,[1]; [4],1680 µM
c1ccc(CC(c2c[nH]c3ccccc23)c2c[nH]c3ccccc23)cc1 [BIM-8],LC50,[1]; [4],1480 µM
Clc1cccc2[nH]cc(Cc3c[nH]c4cccc(Cl)c34)c12 [BIM-9],LC50,[1]; [4],1560 µM
Clc1ccc2[nH]cc(Cc3c[nH]c4ccc(Cl)cc34)c2c1 [BIM-10],LC50,[1]; [4],> 3000 µM
Clc1cccc2c(Cc3c[nH]c4c(Cl)cccc34)c[nH]c12 [BIM-12],LC50,[1]; [4],1180 µM
Fc1ccc2c(Cc3c[nH]c4cc(F)ccc34)c[nH]c2c1 [BIM-13],LC50,[1]; [4],1850 µM
Brc1ccc2c(Cc3c[nH]c4cc(Br)ccc34)c[nH]c2c1 [BIM-14],LC50,[1]; [4],934 µM
Ic1ccc2c(Cc3c[nH]c4cc(I)ccc34)c[nH]c2c1 [BIM-15],LC50,[1]; [4],> 10000 µM
N#Cc1ccc2c(Cc3c[nH]c4cc(C#N)ccc34)c[nH]c2c1 [BIM-17],LC50,[1]; [4],> 10000 µM
O=[N+]([O-])c1ccc2c(Cc3c[nH]c4cc([N+](=O)[O-])ccc34)c[nH]c2c1 [BIM-18],LC50,"[1]; Spodoptera frugiperda, read-out: LD50 (μM)",> 10000 µM
Cc1ccc2c(Cc3c[nH]c4cc(C)ccc34)c[nH]c2c1 [BIM-19],LC50,[1]; [4],1410 µM
COc1ccc2c(Cc3c[nH]c4cc(OC)ccc34)c[nH]c2c1 [BIM-20],LC50,[1]; [5],>3000 µM
FC(F)(F)c1ccc2c(Cc3c[nH]c4cc(C(F)(F)F)ccc34)c[nH]c2c1 [BIM-21],LC50,[1]; [4],974 µM
CC(c1c[nH]c2cc(Cl)ccc12)c1c[nH]c2cc(Cl)ccc12 [BIM-22],LC50,[1]; [4],< 3000 µM
CCC(c1c[nH]c2cc(Cl)ccc12)c1c[nH]c2cc(Cl)ccc12 [BIM-23],LC50,[1]; [4],1350 µM
CCCC(c1c[nH]c2cc(Cl)ccc12)c1c[nH]c2cc(Cl)ccc12 [BIM-24],LC50,[1]; [4],678 µM
c1ccc2c(C(CCCC(c3c[nH]c4ccccc34)c3c[nH]c4ccccc34)c3c[nH]c4ccccc34)c[nH]c2c1 [BIM-27],LC50,[1]; [4],> 5000 µM
Clc1ccc2c(C(c3ccc(Br)cc3)c3c[nH]c4cc(Cl)ccc34)c[nH]c2c1 [BIM-28],LC50,[1]; [4],371 µM
same,lethality,Cry1Fa resistant FAW,100%
Cc1ccc(C(c2c[nH]c3cc(Cl)ccc23)c2c[nH]c3cc(Cl)ccc23)cc1 [BIM-29],LC50,[1]; [5],611 µM
same,lethality,Cry1Fa resistant FAW,100%
Clc1ccc(C(c2c[nH]c3cc(Cl)ccc23)c2c[nH]c3cc(Cl)ccc23)cc1 [BIM-33],LC50,[1]; [4],485 µM
Clc1ccc2c(C(c3ccccc3Br)c3c[nH]c4cc(Cl)ccc34)c[nH]c2c1 [BIM-34],LC50,[1]; [4],352 µM
same,lethality,Cry1Fa resistant FAW,100%
Clc1ccc2c(C(c3cccc(Br)c3)c3c[nH]c4cc(Cl)ccc34)c[nH]c2c1 [BIM-35],LC50,[1]; [4],429 µM
Clc1ccc2c(Cc3c[nH]c4ccccc34)c[nH]c2c1 [BIM-36],LC50,[1]; [5],2457 µM
Clc1ccc2c(C(c3ccc(Br)cc3)c3c[nH]c4ccccc34)c[nH]c2c1 (centres unmarked) [BIM-37 R/S 1:1],LC50,[1]; [5],725 µM
Clc1ccc2c(C(c3ccc(Br)cc3)c3c[nH]c4ccccc34)c[nH]c2c1 (centres unmarked) [BIM-37 R/S 3:1],LC50,[1]; [5],576 µM
CN(C)Cc1c[nH]c2ccccc12 [gramine],LC50,"Aedes aegypti larvae; Aedes aegypti, 72 h",189 µg/mL and 1.08 mM
OCc1c[nH]c2ccccc12 [indole-3-carbinol],LC50,Aedes aegypti larvae; in vivo,0.453 ± 0.307 mM
same,LC50 (μg/mL),Aedes aegypti larvae; in vivo,66.7 ± 45.2 µg/mL
c1ccc2[nH]ccc2c1 [indole],LC50,"Aedes aegypti larvae; Aedes aegypti, 72 h",40.2 µg/mL and 344 µM
